Assay results taken from patent US10849907B2, “Imidazopyridine derivatives and the use thereof as medicament” (Boehringer Ingelheim International GmbH, priority 2017, dated 2020).

Key:
[1] = Metabolic stability in pooled human liver microsomes; assay type: in vitro ADME; conditions: pH 7.6; pooled human liver microsomes 1 mg/mL, 1 μM compound, 37° C., NADPH; read-out: Half-life - t½ human liver microsomes
From the text: Stability in human liver microsomes refers to the susceptibility of compounds to biotransformation in the context of selecting and/or designing drugs with favorable pharmacokinetic properties. The primary site of metabolism for many drugs is the liver. Human liver microsomes contain the cytochrome P450s (CYPs), and thus represent a model system for studying drug metabolization in vitro. Enhanced stability in human liver microsomes is associated with several advantages, including increased bioavailability and adequate half-life, which can enable lower and less frequent dosing of patients. Thus, enhanced stability in human liver microsomes is a favorable characteristic for compounds that are to be used for drugs.
The metabolic degradation of the test compound was assayed at 37° C. with pooled human liver microsomes. The final incubation volume of 60 μl per time point contains TRIS buffer pH 7.6 at room temperature (0.1 M), magnesium chloride (5 mM aqueous solution), microsomal protein (1 mg/mL for human) and the test compound at a final concentration of 1 μM. Following a short preincubation period at 37° C., the reactions were initiated by addition of betanicotinamide adenine dinucleotide phosphate, reduced form (NADPH, 1 mM), and terminated by transferring an aliquot into solvent after different time points. After centrifugation (10000 g, 5 min), an aliquot of the supernatant was assayed by LC-MS/MS for the amount of parent compound. The half-life was determined by the slope of the semi-logarithmic plot of the concentration-time profile.

NMDA NR1/NR2B receptor = target: T1, NMDA NR1/NR2B receptor (Homo sapiens, UniProt Q05586+Q13224); assay: In vitro NMDA NR1/NR2b cell assay (FLIPR, intracellular calcium induced by glycine/glutamate); assay type: cell-based; conditions: HEK293 cells expressing NMDA NR1/NR2B, 20 μM glycine, 1 μM glutamate, compounds of the invention (Table 1)
T1 construct: host or cells: HEK293, tetracycline-inducible expression
Description: A human HEK293 cell line with tetracyclin-inducible expression of NMDA NR1/NR2B receptor was used as a test system for compound efficacy and potency. The cell line was purchased from ChanTest, Catalog # CT6121. Compound activity was determined by measuring the effect of compounds on intracellular calcium concentration induced by glycine/glutamate agonism in a FLIPRtetra system (Molecular Devices).
The cells were obtained as frozen cells in cryo-vials and stored until use at −150° C. Cells were grown in culture medium (DMEM/F12, 10% FBS, 5 μg/mL Blasticidin, 150 μg/mL Zeozin, 500 μg/mL Geneticin). […] For sub-culturing the cells were detached from flasks by Versene. For the assay, cells were detached, washed twice with induction medium (DMEM/F12 without glutamine, 10% FBS, 2 μg/mL Tetracycline, 2 mM Ketamine) and seeded to 384 well pure coat amine plates (BD 359324, 50000 cells per well in 50 μl) 48 h prior to assay in induction medium.
The test compounds were dissolved in 100% DMSO at a concentration of 10 mM and in a first step diluted in DMSO to a concentration of 5 mM, followed by serial dilution steps in 100% DMSO. Dilution factor and number of dilution steps may vary according to needs. Typically 8 different concentrations by 1:5 dilutions were prepared in duplicate, further intermediate dilutions (1:37.5) of the substances were carried out with aqueous assay buffer (137 mM NaCl, 4 mM KCl, 1.8 mM CaCl, 10 mM HEPES, 10 mM Glucose, pH 7.4) resulting in a compound concentration 3 times above the final test concentration and DMSO at 2.7% resulting in 0.9% final DMSO concentration in the assay.
At the assay day cells were washed 3× with assay puffer, 10 μL buffer remained in the wells after washing. 10 μL Ca kit loading buffer (AAT Bioquest) was added to the cells and the plates were incubated with lid for 60 minutes at r.t. 20 μl assay buffer containing 60 μM glycine (20 μM final) and 3 μM glutamate (1 μM final) was added to column 1-23. Fluorescence (indicating the calcium influx as a result of the NR1/NR2B ion channel activation) was read on the FLIPRtetra device for 60 seconds to monitor the glutamate induced effects. After 2 minutes 20 μL of compound or controls (row 1-22) in assay buffer were carefully added to the wells. […] The average of 2 measurements at 5 minutes and 5 min 10 seconds after compound addition is calculated and further used for IC50 calculations. Each assay microtiter plate contained wells (in column 23 or 24) with DMSO controls instead of compound as controls for glycine/glutamate induced fluorescence (high controls) and wells with 1 μM of a reference NR2b NAM as low controls (Compound 22; reference: Layton, Mark E et al, ACS Chemical Neuroscience 2011, 2(7), 352-362).
The output file of the reader contains the well number and measured average fluorescence units. For data evaluation and calculation, the measurement of the low control was set as 0% control and the measurement of the high control was set as 100% control. The IC50 values were calculated using the standard 4 parameter logistic regression formula. Calculation: [y=(a−d)/(1+(x/c)^b)+d], a=low value, d=high value; x=conc M; c=IC50 M; b=slope.

T1 sequence (Q13224 27-1484, other chains not shown): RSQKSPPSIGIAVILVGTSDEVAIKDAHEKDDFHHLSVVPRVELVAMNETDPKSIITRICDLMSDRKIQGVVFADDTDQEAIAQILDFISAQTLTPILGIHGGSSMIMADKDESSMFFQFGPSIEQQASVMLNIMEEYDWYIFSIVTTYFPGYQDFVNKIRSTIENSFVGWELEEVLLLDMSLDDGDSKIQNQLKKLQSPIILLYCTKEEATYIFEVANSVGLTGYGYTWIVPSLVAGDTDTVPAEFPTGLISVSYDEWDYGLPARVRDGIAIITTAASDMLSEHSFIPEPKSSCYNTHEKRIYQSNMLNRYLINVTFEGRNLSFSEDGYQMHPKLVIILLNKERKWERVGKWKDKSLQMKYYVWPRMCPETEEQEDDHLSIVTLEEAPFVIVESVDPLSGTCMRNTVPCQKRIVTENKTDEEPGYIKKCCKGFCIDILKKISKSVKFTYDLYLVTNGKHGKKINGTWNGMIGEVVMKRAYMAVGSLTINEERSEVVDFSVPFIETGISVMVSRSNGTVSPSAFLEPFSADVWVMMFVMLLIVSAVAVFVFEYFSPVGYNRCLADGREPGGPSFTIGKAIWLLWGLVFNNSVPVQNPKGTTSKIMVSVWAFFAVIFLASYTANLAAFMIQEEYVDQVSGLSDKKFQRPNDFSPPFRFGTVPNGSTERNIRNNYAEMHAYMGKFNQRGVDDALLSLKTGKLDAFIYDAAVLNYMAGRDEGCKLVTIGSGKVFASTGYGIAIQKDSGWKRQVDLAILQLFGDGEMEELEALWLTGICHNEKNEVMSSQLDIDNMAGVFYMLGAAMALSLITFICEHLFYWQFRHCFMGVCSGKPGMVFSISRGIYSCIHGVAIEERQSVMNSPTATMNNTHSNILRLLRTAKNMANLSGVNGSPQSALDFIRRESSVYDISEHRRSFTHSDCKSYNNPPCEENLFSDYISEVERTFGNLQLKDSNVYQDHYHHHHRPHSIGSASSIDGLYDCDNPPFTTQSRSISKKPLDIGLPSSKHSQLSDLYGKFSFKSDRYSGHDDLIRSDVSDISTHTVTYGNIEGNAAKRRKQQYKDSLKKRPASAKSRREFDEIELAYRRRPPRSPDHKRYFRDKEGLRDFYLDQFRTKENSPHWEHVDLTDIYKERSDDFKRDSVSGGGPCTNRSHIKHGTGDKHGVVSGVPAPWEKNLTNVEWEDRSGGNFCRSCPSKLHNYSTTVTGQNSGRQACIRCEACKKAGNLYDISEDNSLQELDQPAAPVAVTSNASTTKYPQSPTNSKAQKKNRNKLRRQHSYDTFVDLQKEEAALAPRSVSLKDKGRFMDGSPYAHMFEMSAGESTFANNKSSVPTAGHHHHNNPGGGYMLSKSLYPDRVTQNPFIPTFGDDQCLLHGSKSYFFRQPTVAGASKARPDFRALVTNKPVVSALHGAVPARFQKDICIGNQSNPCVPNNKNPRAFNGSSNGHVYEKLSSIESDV

half-life at 1 µM [1] [min]	IC50 (NMDA NR1/NR2B receptor) [nM]	SMILES
38	409	O=C(OCc1cccc(F)c1)N1CCO[C@H](c2nc3cccnc3[nH]2)C1 [Example 1]
76	83	O=C(OCc1ccc(F)cc1)N1CCO[C@H](c2nc3cccnc3[nH]2)C1 [Example 2]
14	404	Cc1ccccc1COC(=O)N1CCO[C@H](c2nc3cccnc3[nH]2)C1 [Example 8]
12	156	Cc1cccc(F)c1COC(=O)N1CCO[C@H](c2nc3cccnc3[nH]2)C1 [Example 10]
24	55	Cc1ccc(COC(=O)N2CCO[C@H](c3nc4cccnc4[nH]3)C2)c(F)c1 [Example 11]
36	73	Cc1ccc(COC(=O)N2CCO[C@H](c3nc4cccnc4[nH]3)C2)cc1F [Example 12]
37	122	O=C(OCc1ccc(F)cc1Cl)N1CCO[C@H](c2nc3cccnc3[nH]2)C1 [Example 13]
27	121	O=C(OCc1ccccc1Cl)N1CCO[C@H](c2nc3cccnc3[nH]2)C1 [Example 14]
86	93	O=C(OCc1cccc(F)c1F)N1CCO[C@H](c2nc3cccnc3[nH]2)C1 [Example 15]
> 130	104	O=C(OCc1c(F)cccc1F)N1CCO[C@H](c2nc3cccnc3[nH]2)C1 [Example 16]
> 130	76	O=C(OCc1ccccc1)N1CCO[C@H](c2nc3cccnc3[nH]2)C1 [Example 17]
51	54	Cc1ccc(COC(=O)N2CCO[C@H](c3nc4cccnc4[nH]3)C2)cc1 [Example 18]
130	128	O=C(OCc1ccc(F)cc1F)N1CCO[C@H](c2nc3cccnc3[nH]2)C1 [Example 19]
> 130	78	O=C(OCc1ccc(C(F)F)cc1)N1CCO[C@H](c2nc3cccnc3[nH]2)C1 [Example 26]
130	95	O=C(OCc1ccccc1F)N1CCO[C@H](c2nc3cccnc3[nH]2)C1 [Example 27]
> 130	42	O=C(OCc1ccc(Cl)cc1)N1CCO[C@H](c2nc3cccnc3[nH]2)C1 [Example 28]
16	132	Cc1ccc(COC(=O)N2CCO[C@H](c3nc4cc(F)cnc4[nH]3)C2)cc1 [Example 31]
